# Measurements: US20260285850A1, “SUBSTITUTED OXAZOLIDINONES AND IMIDAZOLINONES AS HERBICIDES” (FMC CORPORATION, priority 2023, published 2026)
# Key:
# Format in all cases: in vivo
# [1] = system: barnyardgrass (Echinochloa crus-galli); assay: Test A preemergence soil spray, visual injury rating 0-100; conditions: 10 days, 0 = no effect, 100 = complete control
# Outline: (§1)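 Plants were grown in a loam soil-sand blend and treated with test chemical in a non-phytotoxic solvent mixture containing surfactant, either sprayed on soil preemergence or applied postemergence to 2-10 cm plants. After 10 days in a greenhouse, injury was scored visually against untreated controls, 0 meaning no effect and 100 complete control.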
# [2] = system: blackgrass (Alopecurus myosuroides); assay: as above; conditions: 10 days, 0 = no effect, 100 = complete control
# Outline: as §1
# corn (Zea mays) [3] = assay: as above; conditions: 10 days, 0 = no effect, 100 = complete control
# Outline: as §1
# kochia (Bassia scoparia) [4] = assay: as above; conditions: 10 days, 0 = no effect, 100 = complete control
# Outline: as §1
# [5] = system: oat, wild (wild oat, Avena fatua); assay: as above; conditions: 10 days, 0 = no effect, 100 = complete control
# Outline: as §1
# [6] = system: palmer (palmer amaranth, palmer pigweed, Amaranthus palmeri); assay: as above; conditions: 10 days, 0 = no effect, 100 = complete control
# Outline: as §1
# [7] = system: ragweed (common ragweed, Ambrosia artemisiifolia); assay: as above; conditions: 10 days, 0 = no effect, 100 = complete control
# Outline: as §1
# [8] = system: ryegrass, Italian (italian ryegrass, Lolium multiflorum); assay: as above; conditions: 10 days, 0 = no effect, 100 = complete control
# Outline: as §1
# soybean (Glycine max) [9] = assay: as above; conditions: 10 days, 0 = no effect, 100 = complete control
# Outline: as §1
# [10] = system: wheat (Triticum aestivum); assay: as above; conditions: 10 days, 0 = no effect, 100 = complete control
# Outline: as §1
# [11] = system: barnyardgrass (Echinochloa crus-galli); assay: Test A postemergence application, visual injury rating 0-100; conditions: 10 days
# Outline: as §1
# [12] = system: blackgrass (Alopecurus myosuroides); assay: as above; conditions: 10 days
# Outline: as §1
# corn (Zea mays) [13] = assay: as above; conditions: 10 days
# Outline: as §1
# [14] = system: galium (catchweed bedstraw, Galium aparine); assay: as above; conditions: 10 days
# Outline: as §1
# [15] = system: horseweed (Erigeron canadensis); assay: as above; conditions: 10 days
# Outline: as §1
# kochia (Bassia scoparia) [16] = assay: as above; conditions: 10 days
# Outline: as §1
# [17] = system: oat, wild (wild oat, Avena fatua); assay: as above; conditions: 10 days
# Outline: as §1
# [18] = system: palmer (palmer amaranth, palmer pigweed, Amaranthus palmeri); assay: as above; conditions: 10 days
# Outline: as §1
# [19] = system: ragweed (common ragweed, Ambrosia artemisiifolia); assay: as above; conditions: 10 days
# Outline: as §1
# [20] = system: ryegrass, Italian (italian ryegrass, Lolium multiflorum); assay: as above; conditions: 10 days
# Outline: as §1
# soybean (Glycine max) [21] = assay: as above; conditions: 10 days
# Outline: as §1
# [22] = system: wheat (Triticum aestivum); assay: as above; conditions: 10 days
# Outline: as §1
# [23] = system: barnyardgrass (Echinochloa crusgalli); assay: Test B flooded paddy test, visual plant response rating 0-100; conditions: 250 g ai/ha, Flood, applied to paddy water, evaluated after 13 days
# Outline: (§2)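 Each species was raised to two leaves before flooding to a 3 cm depth and dosing the water with compound. Injury was assessed by eye after 13 days under greenhouse conditions.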
# [24] = system: ducksalad (Heteranthera limosa); assay: as above; conditions: 250 g ai/ha, Flood, applied to paddy water, evaluated after 13 days
# Outline: as §2
# rice (Oryza sativa) = assay: as above; conditions: 250 g ai/ha, Flood, applied to paddy water, evaluated after 13 days
# Outline: as §2
# [25] = system: sedge, umbrella (small-flower umbrella sedge, Cyperus difformis); assay: as above; conditions: 250 g ai/ha, Flood, applied to paddy water, evaluated after 13 days
# Outline: as §2
# [26] = 31 g ai/ha, postemergence, 0 = no effect, 100 = complete control
# [27] = Postemergence, 125 g ai/ha, 0 is no effect, 100 is complete control
smiles,measurement,setting,value
CC1(C(=O)NC2C=CC(C(=O)OC3CCCC3)C2)CN(c2cc(Cl)cc(Cl)c2)C(=O)O1 (stereo not drawn) [Compound 59],Barnyardgrass plant response rating (0-100),[1]; 31 g ai/ha,60
same,Barnyardgrass plant response rating (0 to 100 scale),[1]; 125 g ai/ha,100
same,Blackgrass plant response rating (0-100),[2]; 31 g ai/ha,0
same,Blackgrass plant response rating (0 to 100 scale),[2]; 125 g ai/ha,60
same,Corn plant response rating (0-100),corn (Zea mays) [3]; 31 g ai/ha,0
same,Corn plant response rating (0 to 100 scale),corn (Zea mays) [3]; 125 g ai/ha,50
same,Kochia plant response rating (0-100),kochia (Bassia scoparia) [4]; 31 g ai/ha,40
same,Kochia plant response rating (0 to 100 scale),kochia (Bassia scoparia) [4]; 125 g ai/ha,80
same,"Oat, Wild plant response rating (0-100)",[5]; 31 g ai/ha,10
same,"Oat, Wild plant response rating (0 to 100 scale)",[5]; 125 g ai/ha,80
same,"Amaranth, Palmer plant response rating (0-100)",[6]; 31 g ai/ha,100
same,"Amaranth, Palmer plant response rating (0 to 100 scale)",[6]; 125 g ai/ha,100
same,Ragweed plant response rating (0-100),[7]; 31 g ai/ha,30
same,Ragweed plant response rating (0 to 100 scale),[7]; 125 g ai/ha,60
same,"Ryegrass, Italian plant response rating (0-100)",[8]; 31 g ai/ha,60
same,"Ryegrass, Italian plant response rating (0 to 100 scale)",[8]; 125 g ai/ha,80
same,Soybean plant response rating (0-100),soybean (Glycine max) [9]; 31 g ai/ha,30
same,Soybean plant response rating (0 to 100 scale),soybean (Glycine max) [9]; 125 g ai/ha,60
same,Wheat plant response rating (0-100),[10]; 31 g ai/ha,30
same,Wheat plant response rating (0 to 100 scale),[10]; 125 g ai/ha,70
same,Barnyardgrass plant response rating (0-100),[11]; [26],90
same,Barnyardgrass plant response rating (0 to 100 scale),[11]; [27],90
same,Blackgrass plant response rating (0-100),[12]; [26],100
same,Blackgrass plant response rating (0 to 100 scale),[12]; [27],100
same,Corn plant response rating (0-100),corn (Zea mays) [13]; [26],90
same,Corn plant response rating (0 to 100 scale),corn (Zea mays) [13]; [27],100
same,Galium plant response rating (0-100),[14]; [26],90
same,Galium plant response rating (0 to 100 scale),[14]; [27],90
same,Horseweed plant response rating (0-100),[15]; [26],20
same,Horseweed plant response rating (0 to 100 scale),[15]; [27],70
same,Kochia plant response rating (0-100),kochia (Bassia scoparia) [16]; [26],80
same,Kochia plant response rating (0 to 100 scale),kochia (Bassia scoparia) [16]; [27],90
same,"Oat, Wild plant response rating (0-100)",[17]; [26],60
same,"Oat, Wild plant response rating (0 to 100 scale)",[17]; [27],90
same,"Amaranth, Palmer plant response rating (0-100)",[18]; [26],90
same,"Amaranth, Palmer / Pigweed, Palmer plant response rating (0 to 100 scale)",[18]; [27],100
same,Ragweed plant response rating (0-100),[19]; [26],30
same,Ragweed plant response rating (0 to 100 scale),[19]; [27],80
same,"Ryegrass, Italian plant response rating (0-100)",[20]; [26],90
same,"Ryegrass, Italian plant response rating (0 to 100 scale)",[20]; [27],90
same,Soybean plant response rating (0-100),soybean (Glycine max) [21]; [26],90
same,Soybean plant response rating (0 to 100 scale),soybean (Glycine max) [21]; [27],100
same,Wheat plant response rating (0-100),[22]; [26],90
same,Wheat plant response rating (0 to 100 scale),[22]; [27],90
same,"Plant response rating, Barnyardgrass (0 to 100 scale, 0 is no effect and 100 is complete control)",[23],90
same,"Plant response rating, Ducksalad (0 to 100 scale, 0 is no effect and 100 is complete control)",[24],85
same,"Plant response rating, Rice (0 to 100 scale, 0 is no effect and 100 is complete control)",rice (Oryza sativa),50
same,"Plant response rating, Sedge, Umbrella (0 to 100 scale, 0 is no effect and 100 is complete control)",[25],98
